Columns and labels:
[1] = test system: T cells isolated from mouse spleens; test: T cell proliferation inhibition (CFSE flow cytometry, anti-CD3/anti-CD28 stimulation); assay type: cell-based, C57BL/6 mice; conditions: three days
Outline: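 Splenic T cells from 7-week-old C57BL/6 mice, CFSE-labelled, 2× 10^5 cells/well, stimulated with anti-CD3 and anti-CD28 (0.5 μg/mL each). Compound at 10 nM-50 μM in triplicate for three days at 37 °C, 5% CO2; proliferation inhibition (%) derived by flow cytometry.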

[2] = test system: Human B Lymphocyte cell line, SU-DHL-8; test: Relative cell viability, SU-DHL-8 (CCK-8); assay type: cell-based; conditions: 48 hours, untreated (DMSO) = 100%
Procedure: Human-derived B lymphoma cell line SU-DHL-8 (Cat. #CRL-2961) purchased from ATCC was cultured in RPMI-1640 medium containing 10% FBS, 100 U/mL penicillin, and 100 μg/mL streptomycin.
The cell culture medium was then harvested, centrifuged at 1,300 rpm for 5 minutes, and the supernatant was removed. The cells were resuspended in the same medium and dispensed into a 96-well plate (Costar 96-well cell culture plate, Corning) at 90 μL per well, resulting in the conditions specified in Table 5.
Then, 10 μL of CCK-8 was added to each well, and the plates were incubated again at 37° C. in a 5% CO2 incubator for 4 hours.
In other words, when the survival rate of untreated cells (DMSO) is set at 100%, the relative cell survival rate in each group treated with the drug at different concentrations is indicated.

Row | Structure (SMILES) | Proliferation inhibition rate (%) ([1]; concentration 10 nM, listed as PBK-2024-024, 0.01 µM) | Relative cell viability (%) ([2]; SU-DHL-8, 1 μM, listed as PBK-2024-024, 1 µM) | Relative cell viability (%) ([2]; SU-DHL-8, 10 μM, listed as PBK-2024-024, 10 µM) | Relative cell viability (%) ([2]; SU-DHL-8, 30 μM, listed as PBK-2024-024, 30 µM) | Relative cell viability (%) ([2]; SU-DHL-8, 50 μM, listed as PBK-2024-024, 50 µM) | Proliferation inhibition rate (%) ([1]; concentration 100 nM) | Proliferation inhibition rate (%) ([1]; concentration 1 μM) | Proliferation inhibition rate (%) ([1]; concentration 10 μM) | Proliferation inhibition rate (%) ([1]; concentration 30 μM) | Proliferation inhibition rate (%) ([1]; concentration 50 μM) | Relative cell viability (%) ([2]; SU-DHL-8, 1 μM) | Relative cell viability (%) ([2]; SU-DHL-8, 10 μM) | Relative cell viability (%) ([2]; SU-DHL-8, 30 μM) | Relative cell viability (%) ([2]; SU-DHL-8, 50 μM) | Proliferation inhibition rate (%) ([1]; concentration 10 nM)
1 | COC1CCN(CCCCCCCCCCCCNC(=O)c2cccnc2N)C1 (stereo not drawn) [Compound 32, 2-Amino-N-(12-(3-methoxypyrrolidin-1-yl)dodecyl) nicotinamide] | 0.29 | 3.48 | 3.01 | 1.97 | 1.45 | – | – | – | – | – | – | – | – | – | –
2 | CC1CNCCN1CCCCCCCCCCCCNC(=O)c1cccnc1N (stereo not drawn) [Compound 35, 2-Amino-N-(12-(2-methylpiperazin-1-yl)dodecyl) nicotinamide] | – | – | – | – | – | 100.00 | 100.00 | 100.00 | 100.00 | 100.00 | 1.18 | 0.64 | 0.42 | – | –
3 | C[C@H]1CNCCN1CCCCCCCCCCCCNC(=O)c1cccnc1N.Cl [Compound 37, (S)-2-Amino-N-(12-(2-methylpiperazin-1-yl)dodecyl) nicotinamide hydrochloride] | – | – | – | – | – | – | 100.00 | 100.00 | 100.00 | 100.00 | 6.38 | 4.45 | 3.17 | 2.32 | –
4 | Nc1ncccc1C(=O)NCCCCCCCCCCCCN1CCC(Oc2ccncc2)CC1 [Compound 38, 2-Amino-N-(12-(4-(pyridin-4-yloxy)piperidin-1-yl)dodecyl) nicotinamide] | – | – | – | – | – | 100.00 | 100.00 | 100.00 | 100.00 | 100.00 | 4.16 | 3.30 | 1.79 | 1.42 | –
5 | CC1CCCN(CCCCCCCCCCCCNC(=O)c2cccnc2N)CC1 (stereo not drawn) [Compound 39, 2-Amino-N-(12-(4-methylazepan-1-yl)dodecyl) nicotinamide] | – | – | – | – | – | 100.00 | 100.00 | 100.00 | 100.00 | 100.00 | 11.48 | 8.41 | 6.24 | 4.27 | –
6 | CC1CN(C)C(CCCCCCCCCCCCNc2ccc3cncnc3n2)N1 (stereo not drawn) [Compound 43] | – | – | – | – | – | 100.00 | 100.00 | 100.00 | 100.00 | 100.00 | 22.61 | 11.93 | 2.34 | 1.58 | –
7 | Cl.Nc1ncccc1C(=O)NCCCCCCCCCCCCN1CC[C@H](N)C1 [Compound 50, (S)-2-Amino-N-(12-(3-aminopyrrolidin-1-yl)dodecyl) nicotinamide hydrochloride] | – | – | – | – | – | 100.00 | 100.00 | 100.00 | 100.00 | 100.00 | 9.20 | 8.18 | 6.18 | 4.31 | –
8 | Cc1ccc(OC2CCN(CCCCCCCCCCCCNC(=O)c3cccnc3N)CC2)cc1 [Compound 51, 2-Amino-N-(12-(4-(p-tolyloxy)piperidin-1-yl)dodecyl) nicotinamide] | – | – | – | – | – | – | 100.00 | 100.00 | 100.00 | 100.00 | 3.48 | 1.98 | 0.89 | 0.48 | 0.77
9 | Nc1ncccc1C(=O)NCCCCCCCCCCCCN1CCN(CCO)CC1 [Compound 54, 2-Amino-N-(12-(4-(2-hydroxyethyl)piperazin-1-yl)dodecyl) nicotinamide] | – | – | – | – | – | 100.00 | 100.00 | 100.00 | 100.00 | 100.00 | 6.42 | 4.05 | 3.26 | 2.23 | –
10 | Cc1ccc(C2CCN(CCCCCCCCCCCCNC(=O)c3cccnc3N)CC2)cc1 [Compound 55, 2-Amino-N-(12-(4-(p-tolyl)piperidin-1-yl)dodecyl) nicotinamide] | – | – | – | – | – | 100.00 | 100.00 | 100.00 | 100.00 | 100.00 | 9.36 | 4.92 | 1.10 | 0.97 | –
11 | Cl.O=C(NCCCCCCCCCCCCN1CCNCC1)c1ccc(-c2ccccc2)o1 [Compound 90, 5-Phenyl-N-(12-(piperazin-1-yl)dodecyl) furan-2-carboxamide hydrochloride] | – | – | – | – | – | – | – | 100.00 | 100.00 | 100.00 | 7.19 | 5.94 | 2.48 | 1.94 | –
12 | CN1CCN(CCCCCCCCCCCCNC(=O)c2cccnc2F)CC1 [Compound 121, 2-fluoro-N-(12-(4-methylpiperazin-1-yl)dodecyl) nicotinamide] | – | – | – | – | – | 0.00 | 0.00 | 30.00 | 100.00 | 100.00 | 34.89 | 28.99 | 29.04 | 31.11 | 0.00
13 | Nc1ncccc1C(=O)NCCCCCCCCCCCCN1CC(F)(F)C1 [Compound 122, 2-Amino-N-(12-(3,3-difluoroazetidin-1-yl)dodecyl) nicotinamide] | – | – | – | – | – | 0.00 | 80.00 | 100.00 | 100.00 | 100.00 | 31.84 | 31.91 | 32.93 | 35.70 | 0.00

Reference: patent US20260183302A1, “PDK1 REGULATORY COMPOUND AND COMPOSITION CONTAINING THE SAME” (PROVIBIO CO., LTD., priority 2024, published 2026)
